Measurements published in patent publication EP0398621A2, “Immunoassay of elastase-1” (SHIONOGI SEIYAKU KABUSHIKI KAISHA trading under the name of …, priority 1989, dated 1990).

How the values were obtained:
[1] = system: ¹²⁵I-labelled E1; assay: Radioimmunoassay: effect of α₁-antitrypsin or α₂-macroglobulin on the binding rate of anti-E1 serum with ¹²⁵I-labelled E1; set-up: species or system human
Procedure: (§1) As for measuring buffer solution, 0.01 M phosphate buffer (pH 7.4) containing 0.1 mM Boc-TACK, 0.9% sodium chloride, 0.05% sodium azide and 0.2% bovine serum albumin was used unless otherwise mentioned. One hundred µl of standard E1 solution (0.5 - 50ng/ml) or sample serum was taken into a polystyrene tube. To this were added 100 µl each of ¹²⁵I-labelled E1 solution and anti-E1 serum, which was then mixed and incubated for 3 hours at 37°C. Next, 500 µl of the preparation of the second antibody was added, which was mixed and incubated for 30 minutes at 37°C. The incubated product was centrifuged (3000 rpm, 5 minutes), after which the supernatant was removed by suction and the radioactivity of the precipitate was measured.
Radioimmunoassay was performed using α₁-antitrypsin or α₂-macroglobulin solution in place of the standard E1 solution, whereby the effect of these on the binding rate was examined. As for measuring buffer solution, one mentioned in above-mentioned (7) was used in one method (A method), and one not containing Boc-TACK was used in another method (B method), and one containing PMSF in place of Boc-TACK was used in third method (C method) (Fig. 2).

[2] = system: ¹²⁵I-labelled E1; assay: Gel filtration: binding of serum inhibitor to ¹²⁵I-labelled E1 in human serum; details: 30 minutes at 37°C, Ultrogel AcA 44, ¹²⁵I-labelled E1 treated with the inhibitor
Procedure: To human serum was added ¹²⁵I-labelled E1, which was incubated for 30 minutes at 37°C. This was then subjected to gel filtration [Ultrogel AcA 44 (made by IBF Biotechnichs), ⌀ 1.5 x 55cm, developing solution: 0.1 M phosphate buffer (pH 7.1)]. The eluate was collected in 1-ml portions and the radioactivity in each fraction was measured.
When the human serum to which ¹²⁵I-labelled E1 not treated with Boc-TACK had been added was subjected to gel filtration, the ¹²⁵I-labelled E1 was all eluted in the fraction of its complex containing α₁-antitrypsin and α₂-macroglobulin (Fig. 1-a).

[3] = system: E1; assay: Radioimmunoassay standard curves of Boc-TACK-treated E1 and untreated E1; format: binding, human; details: standard curve of Boc-TACK-treated E1 compared with untreated E1
Procedure: as §1
To evaluate the effect of Boc-TACK on the immunological reaction of E1, standard curves were drawn of Boc-TACK-treated E1 and untreated E1, and then comparison was made between the two.

[4] = system: elastase-1; details: prior art statement; cited from earlier work

Row | Structure (SMILES) | binding rate with increases in serum inhibitor ([1]; α₁-antitrypsin or α₂-macroglobulin solution in place of standard E1, inhibitor in measuring buffer solution) | binding rate with α₂-macroglobulin in a high concentration ([1]; α₂-macroglobulin in a high concentration, 0.1 mM Boc-TACK in measuring buffer solution) | elution of ¹²⁵I-labelled E1 in free fraction or complex fraction [2] | effect on the immunological reaction of E1 [3] | capability of inhibiting the binding of α₁-antitrypsin and α₂-macroglobulin to elastase-1 [4]
1 | CC(NC(=O)[C@H](C)NC(=O)[C@H](C)NC(=O)OC(C)(C)C)C(=O)CCl (some centres unmarked) [Boc-TACK, Nα-[N-(tert-butoxycarbonyl)alanyl]-N-(3-chloro-1-methyl-2-oxopropyl)alanineamide] | little change was observed in the binding rate | only a slight decrease | none of it was found in the complex fraction | did not affect the immunological reaction of E1 in any way | 
2 | O=S(=O)(F)Cc1ccccc1 [PMSF, phenylmethanesulfonyl fluoride] |  |  |  |  | weak capability
